Common to all, as to assay type: functional
The target in experiment [1] is T1, Peroxisome proliferator-activated receptor delta (Homo sapiens, UniProt Q03181).
T1 sequence (Q03181 whole entry): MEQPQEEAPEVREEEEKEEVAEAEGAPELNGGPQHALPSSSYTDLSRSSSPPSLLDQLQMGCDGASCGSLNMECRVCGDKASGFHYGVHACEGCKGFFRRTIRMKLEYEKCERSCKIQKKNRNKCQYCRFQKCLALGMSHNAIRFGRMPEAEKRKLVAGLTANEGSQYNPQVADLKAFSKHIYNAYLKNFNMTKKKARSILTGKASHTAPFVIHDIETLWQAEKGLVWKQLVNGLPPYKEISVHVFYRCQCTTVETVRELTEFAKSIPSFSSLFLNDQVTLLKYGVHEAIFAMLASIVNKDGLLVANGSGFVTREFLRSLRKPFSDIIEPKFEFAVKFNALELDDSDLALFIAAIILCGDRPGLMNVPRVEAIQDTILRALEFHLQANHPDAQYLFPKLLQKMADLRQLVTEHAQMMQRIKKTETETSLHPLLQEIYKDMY
Nature of the experiment: Agonist activity at human recombinant PPARdelta by GAL4 transactivation assay.

The target of experiment [2] is T2, Peroxisome proliferator-activated receptor gamma (Homo sapiens, UniProt P37231).
T2 sequence (P37231 whole entry): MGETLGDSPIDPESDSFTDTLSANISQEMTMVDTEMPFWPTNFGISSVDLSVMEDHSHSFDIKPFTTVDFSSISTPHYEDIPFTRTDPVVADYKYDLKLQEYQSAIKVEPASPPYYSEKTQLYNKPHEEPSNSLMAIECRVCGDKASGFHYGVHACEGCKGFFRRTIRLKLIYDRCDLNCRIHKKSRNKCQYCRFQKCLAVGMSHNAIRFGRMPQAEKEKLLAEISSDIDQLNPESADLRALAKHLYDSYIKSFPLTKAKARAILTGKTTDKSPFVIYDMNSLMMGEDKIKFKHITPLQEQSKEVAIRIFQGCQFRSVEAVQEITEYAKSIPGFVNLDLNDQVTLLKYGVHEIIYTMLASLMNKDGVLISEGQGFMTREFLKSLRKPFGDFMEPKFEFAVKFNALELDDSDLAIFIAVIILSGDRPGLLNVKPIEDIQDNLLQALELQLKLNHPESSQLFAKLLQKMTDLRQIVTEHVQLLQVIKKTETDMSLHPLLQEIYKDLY
Nature of the experiment: Agonist activity at human recombinant PPARgamma by GAL4 transactivation assay.

Experiment [3] concerns the target T3, Peroxisome proliferator-activated receptor alpha (Homo sapiens, UniProt Q07869).
T3 sequence (Q07869 whole entry): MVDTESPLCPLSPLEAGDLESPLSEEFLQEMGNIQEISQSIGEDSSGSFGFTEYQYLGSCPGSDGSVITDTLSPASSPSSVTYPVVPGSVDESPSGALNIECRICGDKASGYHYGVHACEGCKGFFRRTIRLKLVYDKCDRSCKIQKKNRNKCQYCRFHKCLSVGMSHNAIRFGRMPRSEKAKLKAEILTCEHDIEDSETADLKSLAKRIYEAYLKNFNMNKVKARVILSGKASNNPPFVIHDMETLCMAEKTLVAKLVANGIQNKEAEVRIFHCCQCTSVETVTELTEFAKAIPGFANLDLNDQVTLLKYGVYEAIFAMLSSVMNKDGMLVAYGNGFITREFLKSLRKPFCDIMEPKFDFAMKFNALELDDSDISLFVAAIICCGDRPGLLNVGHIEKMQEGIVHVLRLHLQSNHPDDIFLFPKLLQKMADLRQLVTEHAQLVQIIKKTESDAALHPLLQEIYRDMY
Nature of the experiment: Agonist activity at human recombinant PPARalpha by GAL4 transactivation assay.

Experiment [4] deals with Rattus norvegicus. Nature of the experiment: Decrease in triglyceride level in Sprague-Dawley rat at 1 mg/kg after 7 days. Also on record: scale not given: the % may be the effect or the level left.
The subject of experiment [5] is Rattus norvegicus. Description: Increase in liver weight in Sprague-Dawley rat at 1 mg/kg after 7 days.
The test system of experiment [6] is Mus musculus. Nature of the experiment: Increase in plasma HDL-C in human apoA1 transgenic mouse at 3 mg/kg after 14 days.
Experiment [7] relates to Mus musculus. Description: Increase in plasma HDL-C in human apoA1 transgenic mouse at 300 mg/kg after 14 days.
Experiment [8] deals with Mus musculus. Nature of the experiment: Increase in plasma HDL-C in human apoA1 transgenic mouse at 1 mg/kg after 14 days.

In general, EC50 refers to the concentration giving half of the maximal effect.

Molecules are shown by their SMILES.

Turning to `CCC(Oc1cccc(CN(CCCOc2ccccc2)c2nc3cc(C(F)(F)F)ccc3o2)c1)C(=O)O` (centres undefined), the values for the EC50 in experiment [1] (read-out: EC50), in experiment [2] (read-out: EC50) and in experiment [3] (read-out: EC50) were 160 nM, 400 nM and 23 nM, respectively.

For the compound `CCC(Oc1cccc(CN(CCCOc2ccccc2)c2nc3cc(C)ccc3o2)c1)C(=O)O` (centres undefined), the results for the EC50 in experiment [1] (read-out: EC50), in experiment [2] (read-out: EC50) and in experiment [3] (read-out: EC50) were 5000 nM, over 10000 nM and 100 nM, respectively.

With `CCC(Oc1cccc(CN(CCCOc2ccccc2)c2nc3cc(O)ccc3o2)c1)C(=O)O` (centres undefined), the EC50 in experiment [1] (read-out: EC50) was 140 nM; in experiment [2] (read-out: EC50), over 10000 nM; in experiment [3] (read-out: EC50) it was 180 nM.

With `CCC(Oc1cccc(CN(CCCOc2ccc(F)cc2)c2nc3ccccc3o2)c1)C(=O)O` (centres undefined), the results for the EC50 in experiment [2] (read-out: EC50) and in experiment [3] (read-out: EC50) were over 10000 nM and 8 nM, respectively.

On to `CCC(Oc1cccc(CN(CCCOc2ccc(OC)cc2)c2nc3ccccc3o2)c1)C(=O)O` (centres undefined), for which, in experiment [2] (read-out: EC50), the EC50 was over 10000 nM.

As to `CCC(Oc1cccc(CN(CCCOc2cccc([N+](=O)[O-])c2)c2nc3ccccc3o2)c1)C(=O)O` (centres undefined), the results for the EC50 in experiment [1] (read-out: EC50), in experiment [2] (read-out: EC50) and in experiment [3] (read-out: EC50) were 1400 nM, over 10000 nM and 24 nM, respectively.

For `CCC(Oc1cccc(CN(CCCOc2ccc(C)cc2)c2nc3ccccc3o2)c1)C(=O)O` (centres undefined), the EC50 in experiment [1] (read-out: EC50) is 120 nM; in experiment [2] (read-out: EC50) it was 210 nM.

On to `CCC(Oc1cccc(CN(CCCOc2ccc(C)c(C)c2)c2nc3ccccc3o2)c1)C(=O)O` (centres undefined), for which the EC50 was 830 nM in experiment [1] (read-out: EC50), 750 nM in experiment [2] (read-out: EC50) and 1 nM in experiment [3] (read-out: EC50).

Regarding `CCC(Oc1cccc(CN(CCCOc2ccc(F)cc2F)c2nc3ccccc3o2)c1)C(=O)O` (centres undefined), the EC50 in experiment [1] (read-out: EC50) came to 6500 nM; in experiment [2] (read-out: EC50), 2100 nM; in experiment [3] (read-out: EC50) it was 11 nM.

On to `CCC(Oc1cccc(CN(CCCOc2ccc(O)cc2)c2nc3ccccc3o2)c1)C(=O)O` (centres undefined), for which the EC50 in experiment [1] (read-out: EC50) was found to be 3 nM; in experiment [2] (read-out: EC50) it was 1400 nM; in experiment [3] (read-out: EC50), 260 nM.

On to `CC[C@@H](Oc1cccc(CN(CCCOc2ccc(F)cc2)c2nc3ccccc3o2)c1)C(=O)O`, for which the values for the Activity in the experiment on Rattus norvegicus [4], in the experiment on Rattus norvegicus [5] and in the experiment with Mus musculus [6] were -46%, 20% and 147%, respectively.

For `CC[C@H](Oc1cccc(CN(CCCOc2ccc(F)cc2)c2nc3ccccc3o2)c1)C(=O)O`, the EC50 is 1570 nM in experiment [1] (read-out: EC50), 1190 nM in experiment [2] (read-out: EC50) and 20 nM in experiment [3] (read-out: EC50).

Take `CC(C)(Oc1ccccc1CN(CCOc1ccccc1)c1nc2ccccc2o1)C(=O)O`: the EC50 entry in experiment [1], in experiment [2] and in experiment [3] was “Not Active” throughout.

Regarding `CC(C)(Oc1ccc(CN(CCOc2ccccc2)c2nc3ccccc3o2)cc1)C(=O)O`, the EC50 entry in experiment [1], in experiment [2] and in experiment [3] was “Not Active” throughout.

As for `CC(C)(Oc1cccc(CN(CCOc2ccccc2)c2nc3ccccc3o2)c1)C(=O)O`, the EC50 came out at 2100 nM in experiment [2] (read-out: EC50) and 630 nM in experiment [3] (read-out: EC50).

`CC[C@H](Oc1cccc(CN(CCCOc2ccc(OC)cc2)c2nc3ccccc3o2)c1)C(=O)O`: the results for the EC50 in experiment [1] (read-out: EC50) and in experiment [2] (read-out: EC50) were 1800 nM and 1310 nM, respectively.

Turning to `CC(C)(Oc1cccc(CN(CCCOc2ccccc2)c2nc3ccccc3o2)c1)C(=O)O`, the EC50 in experiment [1] (read-out: EC50) amounted to 1400 nM; in experiment [2] (read-out: EC50), 5000 nM; in experiment [3] (read-out: EC50), 190 nM.

For `CC(Oc1cccc(CN(CCCOc2ccccc2)c2nc3ccccc3o2)c1)C(=O)O` (centres undefined), in experiment [1] (read-out: EC50), the EC50 was 2700 nM.

Regarding `CCC(Oc1cccc(CN(CCCOc2ccccc2)c2nc3ccccc3o2)c1)C(=O)O` (centres undefined), the results for the EC50 in experiment [2] (read-out: EC50) and in experiment [3] (read-out: EC50) were over 10000 nM and 9 nM, respectively.

With `CC(Oc1cccc(CCN(CCCOc2ccccc2)c2nc3ccccc3o2)c1)C(=O)O` (centres undefined), the EC50 in experiment [1] (read-out: EC50) stood at 2300 nM; in experiment [2] (read-out: EC50), 1800 nM; in experiment [3] (read-out: EC50), 10 nM.

Regarding `CCC(Oc1cccc(CN(CCCOc2ccccc2)c2nc3ccc(F)cc3o2)c1)C(=O)O` (centres undefined), the 50% effective concentration (EC50) in experiment [1] (read-out: EC50) came out at 1900 nM; in experiment [2] (read-out: EC50), 1100 nM; in experiment [3] (read-out: EC50), 5 nM.

On to `CCC(Oc1cccc(CN(CCCOc2ccc(F)c(F)c2)c2nc3ccccc3o2)c1)C(=O)O` (centres undefined), for which the EC50 in experiment [1] (read-out: EC50) amounted to 1300 nM; in experiment [2] (read-out: EC50), 1800 nM; in experiment [3] (read-out: EC50), 2 nM.

In the case of `CC[C@@H](Oc1cccc(CN(CCCOc2ccccc2)c2nc3ccccc3o2)c1)C(=O)O`, the figures for the Activity in the experiment on Rattus norvegicus [4], with Rattus norvegicus [5] and in the experiment with Mus musculus [6] were -51%, 19% and 201%, respectively.

On to `CCC(Oc1cccc(CN(CCCOc2ccccc2)c2nc3c(O)cccc3o2)c1)C(=O)O` (centres undefined), for which the EC50 in experiment [1] (read-out: EC50) amounted to 1900 nM; in experiment [2] (read-out: EC50) it was 2000 nM; in experiment [3] (read-out: EC50), 160 nM.

With `CCC(Oc1cccc(CN(CCCOc2ccc(S(=O)(=O)OC)cc2)c2nc3ccccc3o2)c1)C(=O)O` (centres undefined), the values for the EC50 in experiment [2] (read-out: EC50) and in experiment [3] (read-out: EC50) were over 10000 nM and 120 nM, respectively.

With `CC[C@H](Oc1cccc(CN(CCCOc2ccccc2)c2nc3ccccc3o2)c1)C(=O)O`, the EC50 in experiment [1] (read-out: EC50) is 1660 nM; in experiment [2] (read-out: EC50), 870 nM; in experiment [3] (read-out: EC50) it was 130 nM.

As to `CC(C)(Oc1cccc(CCCN(CCOc2ccccc2)c2nc3ccccc3o2)c1)C(=O)O`, the EC50 was 800 nM in experiment [1] (read-out: EC50) and 100 nM in experiment [2] (read-out: EC50).

Take `CCC(Oc1cccc(CN(CCCOc2ccccc2)c2nc3cccc(F)c3o2)c1)C(=O)O` (centres undefined): the figures for the EC50 in experiment [1] (read-out: EC50), in experiment [2] (read-out: EC50) and in experiment [3] (read-out: EC50) were 8000 nM, 530 nM and 2 nM, respectively.

For `CCC(Oc1cccc(CN(CCCOc2ccc(C)cc2C)c2nc3ccccc3o2)c1)C(=O)O` (centres undefined), the EC50 in experiment [1] (read-out: EC50) came to 110 nM; in experiment [2] (read-out: EC50) it was 130 nM; in experiment [3] (read-out: EC50), 1 nM.

Take `CCC(Oc1cccc(CN(CCCOc2ccc3c(c2)OCO3)c2nc3ccccc3o2)c1)C(=O)O` (centres undefined): the EC50 turned out to be 1700 nM in experiment [1] (read-out: EC50), 1800 nM in experiment [2] (read-out: EC50) and 7 nM in experiment [3] (read-out: EC50).

Regarding `CC(C)OC(=O)C(C)(C)Oc1ccc(C(=O)c2ccc(Cl)cc2)cc1` [FENOFIBRATE], the Activity in the experiment with Mus musculus [7] came to 145%.

For `CC[C@@H](Oc1cccc(CN(CCCOc2ccc(OC)cc2)c2nc3ccccc3o2)c1)C(=O)O` [PEMAFIBRATE], the 50% effective concentration (EC50) in experiment [1] (read-out: EC50) was determined as 1580 nM. Further, the Activity is -49% in the experiment on Rattus norvegicus [4], 25% in the experiment on Rattus norvegicus [5] and 194% in the experiment on Mus musculus [8].

The values are drawn from ChEMBL document CHEMBL1140024 (Bioorg Med Chem Lett, 2007).
